This is an account of results in US20030162803A1, “Anhydrovinblastine for the treatment of cancer” (priority 1997, published 2003).

Entries after “also recorded” stand apart in the source; their conditions may differ. Where a name gives a salt, the structure may show the parent alone.

Data set [1] concerns C-4 Human Cervical Carcinoma. As to the kind of experiment: C-4 (cervical) solid tumor model. In kind it is in vivo, Rag-2 mice. As for the experimental part: Cultures of C-4 Human Cervical Carcinoma cells are available from the British Columbia Cancer Research Centre. Cells were injected subcutaneously twice into mature male Rag-2 mice (24 mice, 1×10^6 cells/mouse) using a 26-gauge needle. The C-4 cells were suspended in a Hank's Balanced Salt Solution without calcium. Tumors were allowed to form in the mice for 31 days.
When the tumors were well established, four separate groups of mice, were selected for administration of the three test articles (i.e. one group for each test article of AHVB bisulphate, AHVB ditartrate, and Navelbine™) and one control.
AHVB bisulphate and ditartrate, and Navelbine™ were solubilized using 5% dextrose saturated with Argon. These articles were administered at doses of 20 mg/Kg intravenously. Any dose dilutions were made with 5% dextrose.
The articles were administered intravenously on the days 1, 5 and 9, as were controls of 5% dextrose. Body weights and tumor measurements with calipers were taken regularly over the period of the study of 69 days.
Following administration of the test articles, the animals; weight and tumor size (using calipers) were determined regularly over the period of the study. If the tumor size reached I gram in weight or the tumor started to ulcerate, the animals were sacrificed (by carbon dioxide inhalation) and subjected to necropsy. Animals were also monitored at least daily for signs of stress for the full length of the study. Animals manifesting severe symptoms of stress (rapid weight loss, panting, hunched posture, scruffy coat) were also sacrificed and a necropsy performed.
The results of the efficacy studies are given in Table 3 and present averages of data from 6 or fewer animals. Each mouse in a given article group had two subcutaneous tumors on its back. Each tumor was measured in length and width and the volume of each tumor was calculated by […]. The two tumor volumes were then averaged. The volume averages of all the mice/group were averaged to yield a mean for each single date point. The calculation was performed each day the tumors were measured.

Data set [2] can be described thus: Phase I clinical trial, toxicity and MTD. In kind it is in vivo, human patients. As for the experimental part:
Patients had normal bone marrow, hepatic and renal function. Twenty-four patients were treated with escalating doses of AHVB, administered as a 1 hour infusion every 3 weeks. The 24 patients comprised 12 male and 12 female patients with a median age of 60 years (range 27-75 years). Twenty-one of the 24 patients were evaluable. Diagnoses were non-small cell lung cancer (NSCLC), colorectal cancer, soft tissue sarcoma, pancreatic cancer, breast cancer and metastatic neuroendocrine cancer in 11, 5, 4, 1, 1, and 1 patient(s), respectively. […] A total of 51 courses were administered at doses of 2.5, 5, 10,16.5, 21,25 and 30 mg/m^2 to 1,3, 1,3, 6, 6 and 1 patient(s), respectively (see Table 4).
The first patient was entered in the trial at the 2.5 mg/m^2 dose level. […] Five patients were enrolled at the 16.5 mg/m^2 dose level because two patients were not evaluable and had to be replaced. […] Six patients were enrolled at the 25 mg/m^2 dose level. […] This dose level, therefore, exceeded the MTD.
Seven patients were enrolled at the 21 mg/m^2 dose level, but only 6 were evaluable for toxicity due to one patient developing Grade 2 hypertension, headache, nausea and vomiting at the start of the infusion, which recurred on rechallenge. This patient received only 15 ml of the drug solution and, therefore, was not evaluable to assess toxicity. […] The nausea and vomiting observed at the 21 mg/m^2 dose level was a DLT. It was determined that the 21 mg/m^2 dose is the MTD.

Data set [3] can be described thus: Murine P388 model in BDF1 mice. In kind it is in vivo. The conditions noted are these: female, mouse, in vivo; single bolus intravenous injection, BDF1 mice bearing P388 tumors; read-out: maximum tolerated dose. As for the experimental part: Antitumor studies on mice focussed, in one case, on the P388 leukaemia model. […] This is an ascitic tumor model that was generated by intraperitoneal inoculation of 1×10^6 P388 cells (derived from culture, with an original cell line obtained from the NCI tumor repository) in BDF1 mice (Charles Rivers). One day after tumor cell inoculation, mice were treated with a single intravenous injection of drug. Animal weight was monitored daily and tumor progression was measured as an increase in animal weight and through estimation of survival time. Therapy was described by a decrease in tumor progression and an increase in survival time relative to an untreated control group. Initial studies established the maximum therapeutic dose for AHVB. Subsequently comparative studies with vincristine and Navelbine™ were initiated where animals were treated with each drug at the maximum therapeutic dose.
The in vivo anti-tumor activity of AHVB was compared to that of vincristine, Navelbine™ in the BDF1-murine P388 model in the procedure as follows. P388 cells were derived from the ascities of previously injected female BDF1 mice (19-21 grams) P388 cells, from the NCI tumor repository were inoculated directly into mice. The cells arrive from NCI frozen in 1 ml aliquots. These samples were thawed rapidly at 37° C. and subsequently injected (within 1 hour) intraperitoneally into two mice, 0.5 ml per mouse. One week (7 days) after inoculation, the tumor cells were harvested by removing peritoneal fluid using a sterile syringe with a 22 gauge needle. The cells, pooled from two animals, were counted using a hemocytometer, diluted (RPMI media) to a concentration of 2×10^6 cells/ml and 0.5 ml was then re-injected into each of two BDF1 mice. Remaining cells were washed and placed into a DMSO containing media and frozen (in freezer packs that cool at a defined rate). This process was repeated weekly over a […]. Cells used for anti-tumor studies were collected from the third passage to the 20th passage. After the 20th passage the cells were no longer used for experimental studies. Newly established cells were derived from the frozen cells prepared as described above.
Groups (five mice per group) of female BDF1 mice (Charles Rivers, Canada) were injected (intraperitoneal) with 10^6 P388 cells (as described above). One day after tumor cell inoculation, the mice were given a bolus intravenous injection of indicated drug via the lateral tail vein. Control groups were injected with saline. Free drug samples were prepared on the day of injection such that the final concentrations were sufficient to deliver the indicated drug dose in a volume of 200 μl. All dilutions were made using 0.9% Sodium Chloride Injection USP. The mice were briefly (less than 30 sec.) restrained during intravenous injections. Dilation of the vein was achieved by holding the animals under a heat lamp for a period of between five and ten minutes. Following administration of the test articles, animals were weighed daily for fourteen days and monitored for signs of stress twice daily for the first 14 days (once daily on weekends) and once daily for the remainder of the study. Severely distressed animals were terminated by CO2 asphyxiation and the time of death was recorded to occur on the following day. Although complete dose titrations were completed for each drug, the data shown in FIG. 6 is that obtained after administration of the free drugs at their maximum tolerated dose. This was 3, 40 and 40 mg/kg for vincristine, Navelbine™ and AHVB, respectively.
After treating mice (bearing the P388 tumor) with a single dose of the indicated drug, animals were examined twice daily for the first 14 days (once daily on weekends). Weight gain in the control is an indication of tumor progression.
The studies were conducted as described for FIG. 6. […]

For data set [4] the following is noted: single agent; cited from earlier work.
The mark [5] stands for this setting: 20 mg/kg intravenously on days 1, 5, 9.

As to `CCC1=C[C@H]2CN(CCc3c([nH]c4ccccc34)[C@@](C(=O)OC)(c3cc4c(cc3OC)N(C)[C@H]3[C@@](O)(C(=O)OC)[C@H](OC(C)=O)[C@]5(CC)C=CCN6CC[C@]43[C@@H]65)C2)C1` [AHVB, 3′,4′-anhydrovinblastine], in data set [1] (human tumor xenografts of cervical cancer, equitoxic doses), the “activity compared with vincristine and vinorelbine” value was “superior activity to that of both vincristine and vinorelbine”. Also, the toxicities entry in data set [2] (5 mg/m^2, 1 hour IV infusion every 3 weeks) is “Grade 2 anorexia, hyperamylasemia, and increased serum creatinine; also recorded: One patient treated developed Grade 2 elevated amylase,; also recorded: elevated creatine and anorexia requiring an additional 2”; in data set [2] (10 mg/m^2, 1 hour IV infusion every 3 weeks), “One patient treated with minimal toxicity”; in data set [2] (16.5 mg/m^2, 1 hour IV infusion every 3 weeks), “Grade 2 toxicities including infusional hypertension, anemia and dizziness; also recorded: replaced. The next patient showed Grade 2 toxicities; also recorded: two patients had minimal toxicities”; in data set [2] (21 mg/m^2, 1 hour IV infusion every 3 weeks), “Grade 3 nausea and vomiting and Grade 2 constipation; also recorded: patient exhibited Grade 3 nausea and vomiting. This does”; in data set [2] (25 mg/m^2, 1 hour IV infusion every 3 weeks), “DLTs including Grade 4 level constipation and Grade 3 nausea and vomiting; also recorded: grade 4 constipation, Grade 3 tumor pain, nausea, vomiting,; also recorded: anemia and Grade 4 neutropenia (1 patient)”; in data set [2] (30 mg/m^2, 1 hour IV infusion every 3 weeks), “One patient treated developed Grade 3 leukopenia”. Also, the “MTD (maximum-tolerated dose)” value in data set [2] (1 hour IV infusion every 3 weeks, patients) stood at 21 mg/m^2.
As to `CCC1=C[C@@H]2CN(C1)Cc1c([nH]c3ccccc13)[C@@](C(=O)OC)(c1cc3c(cc1OC)N(C)[C@H]1[C@@](O)(C(=O)OC)[C@H](OC(C)=O)[C@]4(CC)C=CCN5CC[C@]31[C@@H]54)C2` [Navelbine, 3′,4′-didehydro-4′-deoxy-C′-norvincaleukoblastine-di-L-tartrate], in data set [3], the MTD at 14 days came out at 40 mg/kg. Moreover, in data set [1] (setting [5]), the “% Delay In Growth (Dig)” value came out at 84%, the “Initial Growth (Day) Of Expt.” value was determined as 29 days, the “Initial Growth (Day) Total” value amounted to 59 days and the “day tumors reached observable 'growth threshold'” value amounted to 41 days. The “mild to moderate peripheral neuropathy (paresthesia and hypesthesia), frequency” value in data set [4] is given as 10 % of patients.
As to `CC[C@]1(O)C[C@H]2CN(CCc3c([nH]c4ccccc34)[C@@](C(=O)OC)(c3cc4c(cc3OC)N(C=O)[C@H]3[C@@](O)(C(=O)OC)[C@H](OC(C)=O)[C@]5(CC)C=CCN6CC[C@]43[C@@H]65)C2)C1` [Vincristine, Sulfate of 22-oxovincaleukoblastine], the MTD at 14 days in data set [3] was 3 mg/kg.
